Holding throughout (type): cell-based, human
One test deals with UPCI-SCC-154 cells. The test can be described thus: MTT antiproliferative assay, UPCI-SCC-154. Particulars: Homo sapiens, 72 h, read-out: Growth inhibition, % ± SEM, 72 h; for inhibition at 10 µM: UPCI-SCC-154, 10 μM; for inhibition at 30 µM: UPCI-SCC-154, 30 μM. The procedure: (§1) The antiproliferative properties of the newly synthesized compounds (9–20) and their starting materials (4 and 5) were determined on a panel of human adherent cancer cell lines. MCF-7, MDA-MB-231 and T47D were isolated from breast cancers differing in biochemical background, while A2780 cells were isolated from ovarian cancer. HeLa and SiHa are cervical cancer cell lines positive for HPV-18 and HPV-16, respectively, while C33-A cervical cancer cells are negative for HPV. Moreover, two oropharyngeal cancer cell lines were also utilized: the HPV-negative UPCI-SCC-131 and HPV-16 positive UPCI-SCC-154. The cancer selectivity of compounds was tested on the non-cancerous mouse embryo fibroblast cell line NIH/3T3. All cell lines were purchased from European Collection of Cell Cultures (ECCAC, Salisbury, UK) exception for SiHa and C33-A (American Tissue Culture Collection, Manassas, VA, USA) and HN-SCC-131 and UPCI-SCC-154 (German Collection of Microorganisms and Cell Cultures GmbH, Braunschweig, Germany). Cells were cultivated in minimal essential medium supplemented with 10% fetal bovine serum, 1% non-essential amino acids and an antibiotic–antimycotic mixture. The medium of oropharyngeal cancer cells additionally contained 2.0 mM L-glutamine. All media and supplements were obtained from Lonza Group Ltd., Basel, Switzerland. Near-confluent cancer cells were seeded onto a 96-well microplate at a density of 5,000 cells/well, except for C33-A which were seeded at 10,000/well. After overnight standing, new medium containing the tested compounds at 10 and 30 µM final concentration was added. After incubation for 72 h at 37 °C in humidified air containing 5% CO2, the living cells were assayed by the addition of 20 μL of 5 mg/ml 3-(4,5-dimethylthiazol-2-yl)-2,5-diphenyltetrazolium bromide (MTT) solution. MTT was converted by intact mitochondrial reductase and precipitated as purple crystals during a 4-h contact period. The medium was next removed and the precipitated formazan crystals were dissolved in 100 μL of DMSO during a 60-min period of shaking at 37 ^оC.
(§2) All in vitro experiments were carried out twice with five parallels. Stock solutions of the tested substances (10 mM) were prepared in DMSO. […] Cisplatin (Ebewe Pharma GmbH, Unterach, Austria) was used as positive control.

A further test deals with SiHa cells. The test can be described thus: MTT antiproliferative assay, SiHa. Particulars: Homo sapiens, 72 h; for inhibition at 10 µM: read-out: Growth inhibition, % ± SEM, 10 μM; for inhibition at 30 µM: read-out: Growth inhibition, % ± SEM, 30 μM. As to the method:
as §1, §2
In general terms: Tetrazolium assays rely on reduction of a dye to a coloured formazan, in cell work by metabolically active cells.

Another test has as its system HeLa cells. The test can be described thus: MTT antiproliferative assay, HeLa. The note with it: Homo sapiens, 72 h; for inhibition at 10 µM: read-out: Growth inhibition, % ± SEM, 10 μM; for inhibition at 30 µM: read-out: Growth inhibition, % ± SEM, 30 μM. The procedure: as §1, §2
In a further test the test system is A2780 cells. The test can be described thus: MTT antiproliferative assay, A2780. Particulars: Homo sapiens, A2780, 72 h, read-out: Growth inhibition, % ± SEM, 72 h; for inhibition at 10 µM: A2780, 10 μM; for inhibition at 30 µM: A2780, 30 μM. The procedure:
as §1, §2

Another test concerns C33-A cells. The test can be described thus: MTT antiproliferative assay, C33-A. The note with it: Homo sapiens, C-33-A, 72 h; for inhibition at 10 µM: read-out: Growth inhibition, % ± SEM, C33-A, 10 μM; for inhibition at 30 µM: read-out: Growth inhibition, % ± SEM, C33-A, 30 μM. The procedure: as §1, §2
A further test deals with MCF-7 cells. The test can be described thus: MTT antiproliferative assay, MCF-7. The note with it: Homo sapiens, MCF7, 72 h, read-out: Growth inhibition, % ± SEM, 72 h; for inhibition at 10 µM: MCF-7, 10 μM; for inhibition at 30 µM: MCF-7, 30 μM. The procedure:
as §1, §2

In a further test the test system is MDA-MB-231 cells. The test can be described thus: MTT antiproliferative assay, MDA-MB-231. Particulars: Homo sapiens, MDA-MB-231, 72 h, read-out: Growth inhibition; % ± SEM. The procedure: as §1, §2
The subject of another test is T47D cells. The experiment in a line: MTT antiproliferative assay, T47D. The note with it: Homo sapiens, 72 h; for inhibition at 10 µM: read-out: Growth inhibition, % ± SEM, 10 μM; for inhibition at 30 µM: read-out: Growth inhibition, % ± SEM, 30 μM. The procedure: as §1, §2
In another test the test system is UPCI-SCC-131 cells. The experiment in a line: MTT antiproliferative assay, UPCI-SCC-131. The note with it: Homo sapiens, 72 h, read-out: Growth inhibition, % ± SEM, 72 h; for inhibition at 10 µM: UPCI-SCC-131, 10 μM; for inhibition at 30 µM: UPCI-SCC-131, 30 μM. As to the method:
as §1, §2

On to `COc1ccc2c(c1)CC[C@@H]1[C@@H]2CC[C@@]2(C)C(=O)[C@@H](CP(=O)(c3ccccc3)c3ccccc3)C[C@@H]12` [Compound 10, [(3-methoxy-17-oxo-13α-oestra-1,3,5(10)-trien-16β-yl)methyl]diphenylphosphine oxide], for which the inhibition at 10 µM was under 20% in the test on UPCI-SCC-154 cells; under 20% in the test with SiHa cells; under 20% in the test with HeLa cells; under 20% in the test with A2780 cells; 22 ± 1.84% with C33-A cells; under 20% with MCF-7 cells. Moreover, the inhibition at 10 µM with MDA-MB-231 cells was under 20%; in the test on T47D cells it was under 20%; in the test on UPCI-SCC-131 cells, 39.8 ± 1.36%. Moreover, the inhibition at 30 µM in the test on UPCI-SCC-154 cells was 24.3 ± 2.84%; in the test with SiHa cells it was under 20%; with HeLa cells it was 21.5 ± 2.99%; in the test on A2780 cells it was 64.2 ± 2.65%; in the test with C33-A cells, 27.2 ± 1.85%; with MCF-7 cells, 35.9 ± 3.3%. Moreover, the results for the inhibition at 30 µM in the test with MDA-MB-231 cells, in the test with T47D cells and with UPCI-SCC-131 cells were under 20%, 61.1 ± 1.06% and 72.9 ± 1.7%, respectively.

For `C[C@@]12CC[C@@H]3c4ccc(OCc5ccccc5)cc4CC[C@H]3[C@@H]1C[C@@H](CP(=O)(c1ccccc1)c1ccccc1)C2=O` [Compound 11, [(3-benzyloxy-17-oxo-13α-oestra-1,3,5(10)-trien-16α-yl)methyl]diphenylphosphine oxide], the inhibition at 10 µM with UPCI-SCC-154 cells, in the test on SiHa cells, in the test on HeLa cells, with A2780 cells, in the test with C33-A cells and in the test on MCF-7 cells was under 20% each time. For the same compound, the inhibition at 10 µM is under 20% in the test on MDA-MB-231 cells, 24.7 ± 1.7% in the test on T47D cells and 20.9 ± 1.67% in the test on UPCI-SCC-131 cells. Also, the inhibition at 30 µM in the test on UPCI-SCC-154 cells came out at 38.6 ± 2.6%; in the test on SiHa cells, 30.2 ± 2.99%; in the test on HeLa cells it was 23.8 ± 2.11%; with A2780 cells, 21.9 ± 2.63%; in the test with C33-A cells, 40.3 ± 0.95%; in the test on MCF-7 cells it was 37.1 ± 0.72%. The inhibition at 30 µM is under 20% in the test on MDA-MB-231 cells, 59 ± 1.38% in the test with T47D cells and 62.5 ± 1.4% in the test on UPCI-SCC-131 cells.

With `Cc1ccc(P(=O)(C[C@@H]2C[C@H]3[C@@H]4CCc5cc(OCc6ccccc6)ccc5[C@H]4CC[C@@]3(C)C2=O)c2ccc(C)cc2)cc1` [Compound 15, [(3-benzyloxy-17-oxo-13α-oestra-1,3,5(10)-trien-16α-yl)methyl]di-p-tolylphosphine oxide], the inhibition at 10 µM in the test with UPCI-SCC-154 cells, in the test on SiHa cells, in the test with HeLa cells, in the test with A2780 cells, in the test on C33-A cells and with MCF-7 cells was under 20% each time. In addition, the figures for the inhibition at 10 µM with MDA-MB-231 cells, with T47D cells and in the test on UPCI-SCC-131 cells were under 20%, 39.1 ± 2.01% and 24.6 ± 1.39%, respectively. Besides, the inhibition at 30 µM in the test with UPCI-SCC-154 cells was 34.7 ± 1.36%; in the test with SiHa cells it was under 20%; in the test with HeLa cells, 27.4 ± 1.57%; in the test with A2780 cells, 49.4 ± 2.06%; in the test with C33-A cells, 26.9 ± 0.84%; in the test on MCF-7 cells it was under 20%. Moreover, the inhibition at 30 µM in the test on MDA-MB-231 cells was under 20%; with T47D cells, 58.5 ± 0.8%; with UPCI-SCC-131 cells, 60.2 ± 1.32%.

For orientation: inhibition means the drop in the measured response relative to a control, in per cent.

For the origin of these results see publication PMC8405091, “Microwave-assisted Phospha-Michael addition reactions in the 13α-oestrone series and in vitro antiproliferative properties” (Journal of Enzyme Inhibition and Medicinal Chemistry, 2021).
